Literature values as cited in patent US20150272935A1, “Use of a Factor Xa Inhibitor for Treating and Preventing Bleeding Events And Related Disorders in Patients Having Sensitivity to Vitamin K Antagonists Used As Anticoagulants” (priority 2014, published 2015).
Read-outs that look alike come from different tables or passages of the source.

Columns and labels:
[1] = target: CYP2C9*2 (Homo sapiens, UniProt P11712, R144C); settings: CYP2C9*2 versus CYP2C9*1
[2] = target: CYP2C9*3 (Homo sapiens, UniProt P11712, I359L); settings: CYP2C9*3 versus CYP2C9*1
[3] = rats
[4] = monkeys

reduction of warfarin metabolism [1] | reduction of warfarin metabolism [2] | oral bioavailability [3] | oral bioavailability [4] | oral bioavailability (human subjects) | SMILES | safety and tolerability (doses of up to 90 mg per day)
about 30% | about 90% |  |  |  | CC(=O)CC(c1ccccc1)c1c(O)c2ccccc2oc1=O (stereo not drawn) [Warfarin] | 
 |  | orally bioavailable | orally bioavailable | orally bioavailable | CN1CCc2nc(C(=O)N[C@@H]3C[C@@H](C(=O)N(C)C)CC[C@@H]3NC(=O)C(=O)Nc3ccc(Cl)cn3)sc2C1.Cc1ccc(S(=O)(=O)O)cc1 [Edoxaban] | generally safe and well tolerated
